Data on 3 molecules can be found in PubChem BioAssay (NCI).

Molecules are shown by their SMILES.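 Assay format: 96-well plates, 48-hour exposure. GI50: concentration for 50% inhibition of growth. Definition used: TGI = concentration required for complete inhibition of growth.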

Test systems include K-562 leukemia; SW-620 colon; SK-MEL-2 melanoma; OVCAR-4 ovarian; HCC-2998 colon; CAKI-1 renal; LOX IMVI melanoma; SNB-19 CNS; SF-295 CNS; KM12 colon; NCI-H226 lung; SF-539 CNS.
Assay in all cases: NCI-60 cell line screen, 48 h

As to `COc1ccc2[nH]c(C(=O)N3CC(CCl)c4c3cc(N)c3ccccc43)cc2c1` (centres undefined), the TGI in the assay on K-562 leukemia is over 100000 nM; in the assay with SW-620 colon, 132 nM; with SK-MEL-2 melanoma it was 28.5 nM; in the assay on OVCAR-4 ovarian, under 10 nM; with HCC-2998 colon, under 10 nM; in the assay with CAKI-1 renal it was under 10 nM. Further, the TGI in the assay with LOX IMVI melanoma is 22.3 nM; in the assay on SNB-19 CNS it was under 38.6 nM; with SF-295 CNS it was under 17.2 nM; in the assay on KM12 colon it was 263 nM; in the assay with NCI-H226 lung it was under 22.5 nM.

Take `COc1cc(CCN(C)C)cc(OC)c1OC`: the TGI in the assay on K-562 leukemia, with SW-620 colon, in the assay with SF-539 CNS, in the assay with SK-MEL-2 melanoma, in the assay on OVCAR-4 ovarian and in the assay on HCC-2998 colon was over 100000 nM in each case. Besides, the TGI in the assay with CAKI-1 renal, with LOX IMVI melanoma, in the assay with SNB-19 CNS, in the assay on SF-295 CNS, in the assay on KM12 colon and with NCI-H226 lung was over 100000 nM in each case.

Regarding `Clc1ccc(C2CC(c3cccc(Nc4ccncc4)c3)=NN2c2cc(Cl)cc(Cl)c2)cc1` (centres undefined), the GI50 with K-562 leukemia is 2550 nM; with SW-620 colon, 1840 nM; in the assay on SF-539 CNS it was 1690 nM; with OVCAR-4 ovarian it was 1800 nM; with HCC-2998 colon, 1560 nM; in the assay on CAKI-1 renal, 1610 nM. Also, the GI50 was 1760 nM in the assay on SF-295 CNS and 1790 nM in the assay with KM12 colon. Moreover, the TGI turned out to be 6120 nM with K-562 leukemia; 3860 nM in the assay with SW-620 colon; 3200 nM in the assay on SF-539 CNS; 3390 nM in the assay with OVCAR-4 ovarian; 3040 nM in the assay with HCC-2998 colon; 3130 nM in the assay with CAKI-1 renal. Further, the TGI turned out to be 3230 nM in the assay with SF-295 CNS and 3380 nM in the assay with KM12 colon.
